“And” between values parts separate entries of the source, which are not always exact repeats. Equal entries are not always repeated.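 Step 1: Grow cells in 96-well plates. Step 2: Expose to compound for 48 hours at 5 concentrations. Step 3: Interpolate endpoints linearly; if unreached, use highest concentration. GI50 = concentration required for 50% inhibition of growth.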 The source made the active and inactive calls. No stated cut-off is given here; in the data, active = GI50 up to about 1.1 µM and inactive = higher.
What was measured:
Assay in all cases: DTP human tumour cell line panel, 48 h
A549 = tested on: A549
SK-MEL-5 = tested on: SK-MEL-5
HCC 2998 = tested on: HCC 2998
A498 = tested on: A498
SK-OV-3 = tested on: SK-OV-3
COLO 205 = tested on: COLO 205
NCI-H23 = tested on: NCI-H23
SNB-75 = tested on: SNB-75
KM12 = tested on: KM12
SN12C = tested on: SN12C
OVCAR-5 = tested on: OVCAR-5
Malme-3M = tested on: Malme-3M
HCT-15 = tested on: HCT-15
SF-539 = tested on: SF-539
PC-3 = tested on: PC-3
T47D = tested on: T47D
HCT-116 = tested on: HCT-116
MDA-MB-231 = tested on: MDA-MB-231
NCI-H522 = tested on: NCI-H522

SMILES | GI50 (A549) | GI50 (SK-MEL-5) | GI50 (HCC 2998) | GI50 (A498) | GI50 (SK-OV-3) | GI50 (COLO 205) | GI50 (NCI-H23) | GI50 (SNB-75) | GI50 (KM12) | GI50 (SN12C) | GI50 (OVCAR-5) | GI50 (Malme-3M) | GI50 (HCT-15) [µM] | GI50 (SF-539) | GI50 (PC-3) | GI50 (T47D) | GI50 (HCT-116) | GI50 (MDA-MB-231) | GI50 (NCI-H522)
O=C1[C@H]2ON(c3ccccc3)C(c3ccccc3)[C@H]2C(=O)N1c1ccc(Cc2ccc(N3C(=O)[C@@H]4ON(c5ccccc5)C(c5ccccc5)[C@@H]4C3=O)cc2)cc1 (some centres not stated) | > 100 µM (inactive) | > 100 µM (inactive) | > 100 µM (inactive) | > 100 µM (inactive) | > 100 µM (inactive) | > 100 µM (inactive) | > 100 µM (inactive) | > 100 µM (inactive) | > 100 µM (inactive) | > 100 µM (inactive) | > 100 µM (inactive) | > 100 µM (inactive) | > 100 | > 100 µM (inactive) | – | – | – | – | –
CC(=O)OCC1OC(n2c(-c3ccccc3)c(/N=N/c3ccc(C)cc3)c(C)c(C#N)c2=S)C(OC(C)=O)C(OC(C)=O)C1OC(C)=O (configuration not stated) | 9.62 µM (inactive) | – | 22.7 µM (inactive) | 2.78 µM (inactive) | – | 23.1 µM (inactive) | 13.4 µM (inactive) | – | 8.28 µM (inactive) | 6.35 µM (inactive) | 23.7 µM (inactive) | > 10 µM (inactive) | 21.1 | – | > 10 µM (inactive) | 59.8 µM (inactive) | 3.26 µM (inactive) | 17.7 µM (inactive) | –
O=C(Cc1ccccc1)NN1C(=O)/C(=C\c2ccccc2O)S/C1=N\c1ccccc1 | > 100 µM (inactive) | > 100 µM (inactive) | > 100 µM (inactive) | > 100 µM (inactive) | > 100 µM (inactive) | > 100 µM (inactive) | > 100 µM (inactive) | > 100 µM (inactive) | > 100 µM (inactive) | > 100 µM (inactive) | > 100 µM (inactive) | – | > 100 | > 100 µM (inactive) | – | > 100 µM (inactive) | > 100 µM (inactive) | > 100 µM (inactive) | –
O=C1c2cc(O)c(O)cc2O[C@H](c2ccc(O)c(O)c2)[C@H]1O | > 100 µM (inactive) | > 100 µM (inactive) | > 100 µM (inactive) | > 100 µM (inactive) | > 100 µM (inactive) | > 100 µM (inactive) | 45.4 µM (inactive) | > 100 µM (inactive) | > 100 µM (inactive) | > 100 µM (inactive) | > 100 µM (inactive) | – | > 100 | > 100 µM (inactive) | > 100 µM (inactive) | > 100 µM (inactive) | > 100 µM (inactive) | > 100 µM (inactive) | > 100 µM (inactive)
CCCCCCC(=O)O[C@H]1CC[C@H]2[C@@H]3CCC4C/C(=N/NC(=O)c5cccc6c(=O)c7ccccc7[nH]c56)C=C(C)[C@]4(C)[C@H]3CC[C@]12C (some centres not stated) | > 25 µM (inactive) | > 25 µM (inactive) | > 25 µM (inactive) | – | > 25 µM (inactive) | > 25 µM (inactive) | > 25 µM (inactive) | > 25 µM (inactive) | 9.27 µM (inactive) | > 25 µM (inactive) | > 25 µM (inactive) | > 25 µM (inactive) | > 25 | > 25 µM (inactive) | > 25 µM (inactive) | > 25 µM (inactive) | > 25 µM (inactive) | > 25 µM (inactive) | –
CC(NNC(=O)c1ccncc1)c1ccccc1 (configuration not stated) | > 100 µM (inactive) | > 100 µM (inactive) | > 100 µM (inactive) | > 100 µM (inactive) | > 100 µM (inactive) | > 100 µM (inactive) | > 100 µM (inactive) | > 100 µM (inactive) | > 100 µM (inactive) | > 100 µM (inactive) | > 100 µM (inactive) | > 100 µM (inactive) | > 100 | > 100 µM (inactive) | > 100 µM (inactive) | > 100 µM (inactive) | > 100 µM (inactive) | > 100 µM (inactive) | –
Cc1c2c(n3c(nc4ccccc43)c1C#N)SCC2 | > 10 µM (inactive) | > 10 µM (inactive) | – | 3.36 µM (inactive) | > 10 µM (inactive) | – | > 10 µM (inactive) | > 10 µM (inactive) | > 10 µM (inactive) | > 10 µM (inactive) | > 10 µM (inactive) | > 10 µM (inactive) | > 10 | > 10 µM (inactive) | > 10 µM (inactive) | > 10 µM (inactive) | > 10 µM (inactive) | > 10 µM (inactive) | –
Nc1ccn(C2CC(O)C(COP(=O)(S)OC3CC(n4ccc(N)nc4=O)OC3CO)O2)c(=O)n1 (configuration not stated) | > 100 µM (inactive) | > 100 µM (inactive) | > 100 µM (inactive) | – | – | 13.8 µM (inactive) | > 100 µM (inactive) | 36.5 µM (inactive) | > 100 µM (inactive) | 52.4 µM (inactive) | > 100 µM (inactive) | – | > 100 | > 100 µM (inactive) | > 100 µM (inactive) | > 100 µM (inactive) | > 100 µM (inactive) | > 100 µM (inactive) | > 100 µM (inactive)
COc1ccccc1/N=N/c1c(O)ccc2ccccc12 | 32.7 µM (inactive) and 23 µM (inactive) | 22.8 µM (inactive) and 20.7 µM (inactive) | 21.3 µM (inactive) | 32.1 µM (inactive) and 23.5 µM (inactive) | 13.6 µM (inactive) and 18.3 µM (inactive) | 56.8 µM (inactive) and 64.7 µM (inactive) | 21.7 µM (inactive) and 31.4 µM (inactive) | 18.7 µM (inactive) and 19.6 µM (inactive) | 51.6 µM (inactive) and > 45.5 µM (inactive) | 71.4 µM (inactive) and 60.8 µM (inactive) | 40.1 µM (inactive) and 38.9 µM (inactive) | – | > 63.2 | – | 35.6 µM (inactive) and 38.1 µM (inactive) | 23.3 µM (inactive) and 38.2 µM (inactive) | 33.4 µM (inactive) and 29 µM (inactive) | 30.2 µM (inactive) and 28.5 µM (inactive) | –
COc1nc2c(c(=O)[nH]1)N=C(c1ccc(Cl)cc1)CC(c1ccccc1)N2 (configuration not stated) | 33.4 µM (inactive) | 17.6 µM (inactive) | 34 µM (inactive) | 33.3 µM (inactive) | – | 38.8 µM (inactive) | 49.2 µM (inactive) | 20.8 µM (inactive) | 37.2 µM (inactive) | 22.7 µM (inactive) | 49.9 µM (inactive) | – | 24.2 | 21.6 µM (inactive) | 43.5 µM (inactive) | – | 34.3 µM (inactive) | 23.8 µM (inactive) | 20.3 µM (inactive)
CC1=NN(c2nc(N)nc(/C(C#N)=C\C3COc4ccccc4C3=O)n2)C(C)(C)C1 (configuration not stated) | – | 18.7 µM (inactive) | 30.4 µM (inactive) | 17.9 µM (inactive) | 25.8 µM (inactive) | – | 27 µM (inactive) | – | 36.7 µM (inactive) | – | 35.6 µM (inactive) | – | 22.9 | 26.2 µM (inactive) | 24.4 µM (inactive) | 18.2 µM (inactive) | 20.6 µM (inactive) | 30.1 µM (inactive) | 26.2 µM (inactive)
O=c1[nH]nc(-c2ccccc2)n1/N=C/c1cccs1 | 52.4 µM (inactive) | – | > 100 µM (inactive) | 54.2 µM (inactive) | > 100 µM (inactive) | 19.5 µM (inactive) | 36.6 µM (inactive) | 49.7 µM (inactive) | > 100 µM (inactive) | 46.8 µM (inactive) | > 100 µM (inactive) | 62.5 µM (inactive) | 44.3 | 95.5 µM (inactive) | 66.1 µM (inactive) | 38.1 µM (inactive) | 36.7 µM (inactive) | > 100 µM (inactive) | –
C=C1C[C@]23CC[C@@H]4C(CO)(CO)CC(=O)C[C@]4(C)[C@@H]2CC[C@H]1C3 | > 100 µM (inactive) | – | > 100 µM (inactive) | – | > 100 µM (inactive) | > 100 µM (inactive) | > 100 µM (inactive) | > 100 µM (inactive) | – | > 100 µM (inactive) | > 100 µM (inactive) | > 100 µM (inactive) | > 100 | > 100 µM (inactive) | 40.5 µM (inactive) | – | > 100 µM (inactive) | > 100 µM (inactive) | > 100 µM (inactive)
SC1=C2CCCCCC2=NC2(CCCCCC2)S1 | 24.5 µM (inactive) | 11.2 µM (inactive) | 23.3 µM (inactive) | – | 62.8 µM (inactive) | 17.7 µM (inactive) | 9.12 µM (inactive) | 19.2 µM (inactive) | 18.4 µM (inactive) | 37.3 µM (inactive) | 30.5 µM (inactive) | 22 µM (inactive) | 37.1 | 35.1 µM (inactive) | 27.5 µM (inactive) | 17.4 µM (inactive) | 26.9 µM (inactive) | 36.6 µM (inactive) | –
COC(=O)c1cnc(Cl)cn1 | > 100 µM (inactive) | 59.2 µM (inactive) | – | – | > 100 µM (inactive) | > 100 µM (inactive) | 20.1 µM (inactive) | 90.4 µM (inactive) | 24.9 µM (inactive) | 30.5 µM (inactive) | 58.3 µM (inactive) | 50.2 µM (inactive) | 17.3 | 74.3 µM (inactive) | 13.6 µM (inactive) | 40.3 µM (inactive) | 38.2 µM (inactive) | 71.8 µM (inactive) | 2.49 µM (inactive)
O=S(=O)(O)c1cc(O)c(/N=N/c2ccc3ccccc3c2O)c2ccccc12 [ERIOCHROME BLUE BLACK B] | 21.1 µM (inactive) | 11.9 µM (inactive) | – | – | 31.6 µM (inactive) | 28.7 µM (inactive) | 15.2 µM (inactive) | 16.7 µM (inactive) | 30.4 µM (inactive) | 23.4 µM (inactive) | 33.3 µM (inactive) | 0.0753 µM (active) | 23.9 | – | 34.3 µM (inactive) | 15.8 µM (inactive) | 33.4 µM (inactive) | 16.4 µM (inactive) | 15.1 µM (inactive)

— ChEMBL document CHEMBL1201862, “PubChem BioAssay data set” (2004)
